Measured values published in patent US8492543B2, “Method for producing quinazoline derivative” (Eisai R&D Management Co., Ltd., priority 2007, dated 2013).
Like-named read-outs stand apart in the source and are kept apart here. Blank lines part the entries; values can stand above or below the compound they belong to.

Key:
CYP1A2 [1] = test: Induction potency of drug metabolizing enzyme (CYP) using cryopreserved human hepatocytes: CYP1A2 mRNA; details: 10 μM, approx. 48 hours, mRNA relative to β-NF 10 μM
Experimental: (§1) Cryopreserved human hepatocytes (XenoTeck) were rapidly thawed at 37° C., and viable cells were obtained using Hepatocytes Isolation Kit (Nosan Corporation). After cells prepared were diluted with ice cold William's Medium E (10% FBS, +PSG) to give a concentration of 5×10^5 viable cells/mL, the cells were seeded onto a 48-well collagen-coated plate (BD Biosciences) at a concentration of 1×10^5 cells/cm^2 and cultured at 37° C. in 5% CO2 for 24 hours. Then, the medium was replaced with Hepato-STIM (registered trade mark: BD Biosciences) (+EGF, PSG, −FBS), and the cells were further cultured at 37° C. in 5% CO2 for 24 hours. […] The culture medium containing test compound, β-NF or Rif was replaced every 24 hours. Test compound, β-NF and Rif were each dissolved in dimethyl sulfoxide (DMSO: Wako Pure Chemical Industries, Ltd.), and culture medium containing test compound (final concentrations; 1, 3 and 10 μM), β-NF (final concentration; 10 μM) or Rif (final concentration; 10 μM) was prepared by adding them to Hepato-STIM(+EGF, PSG, −FBS), respectively. Final concentration of DMSO was set to be 0.1%, and culture medium containing 0.1% DMSO was used for control. After completion of the treatment, the cells were washed with PBS once, and total RNA was purified using Total RNA Purification Kit (Applied Biosystems). The purified total RNA was subjected to reverse transcription reaction using TaqMan Reverse Transcription Reagents (Applied Biosystems) to synthesize cDNA, where oligo dT was used as a primer. The reaction was carried out using Gene Amp PCR system 9700 at 25° C. for 10 minutes, followed by at 48° C. for 60 minutes. Then, reverse transcriptase was deactivated at 95° C. for 10 minutes. The levels of mRNA for CYP1A1 and GAPDH were quantified using SYBR Green PCR Core Reagents Kit (Applied Biosystems), and those for CYP1A2 and that of CYP3A4 were measured using Taqman PCR Core Reagents Kit (Applied Biosystems) and ABI Prism 7900 Sequence Detection System (Applied Biosystems).
(§2) The ability of a test compound to induce CYP1A1 was calculated as follows: Ability of a test compound to induce CYP1A1(%)={[(amount of mRNA of CYP1A1 in test compound treated cells)/(amount of mRNA of GAPDH in test compound treated cells)]/[(amount of mRNA of CYP1A1 in control cells)/(amount of mRNA of GAPDH in control cells)]−1}/{[(amount of mRNA of CYP1A1 in positive control treated cells)/(amount of mRNA of GAPDH in positive control treated cells)]/[(amount of mRNA of CYP1A1 in control cells)/(amount of mRNA of GAPDH in control cells)]−1}×100
(§3) The ability to induce CYP1A2 or CYP3A4 was calculated in the same manner described above.

CYPs = test: Induction potency on CYPs, overall statement (cryopreserved human hepatocytes); details: CYP1A1, CYP1A2, CYP3A4; 1, 3 and 10 μM
Experimental: Cryopreserved human hepatocytes (XenoTeck) were rapidly thawed at 37° C., and viable cells were obtained using Hepatocytes Isolation Kit (Nosan Corporation). After cells prepared were diluted with ice cold William's Medium E (10% FBS, +PSG) to give a concentration of 5×10^5 viable cells/mL, the cells were seeded onto a 48-well collagen-coated plate (BD Biosciences) at a concentration of 1×10^5 cells/cm^2 and cultured at 37° C. in 5% CO2 for 24 hours. Then, the medium was replaced with Hepato-STIM (registered trade mark: BD Biosciences) (+EGF, PSG, −FBS), and the cells were further cultured at 37° C. in 5% CO2 for 24 hours. […] The culture medium containing test compound, β-NF or Rif was replaced every 24 hours. […] The levels of mRNA for CYP1A1 and GAPDH were quantified using SYBR Green PCR Core Reagents Kit (Applied Biosystems), and those for CYP1A2 and that of CYP3A4 were measured using Taqman PCR Core Reagents Kit (Applied Biosystems) and ABI Prism 7900 Sequence Detection System (Applied Biosystems). […]
as §3

CYP1A2 [2] = details: human, hepatocytes
Experimental: as §1, §2, §3

CYP3A4 = test: Induction potency of drug metabolizing enzyme (CYP) using cryopreserved human hepatocytes: CYP3A4 mRNA; details: approx. 48 hours, mRNA relative to Rif 10 μM
Experimental: Cryopreserved human hepatocytes (XenoTeck) were rapidly thawed at 37° C., and viable cells were obtained using Hepatocytes Isolation Kit (Nosan Corporation). After cells prepared were diluted with ice cold William's Medium E (10% FBS, +PSG) to give a concentration of 5×10^5 viable cells/mL, the cells were seeded onto a 48-well collagen-coated plate (BD Biosciences) at a concentration of 1×10^5 cells/cm^2 and cultured at 37° C. in 5% CO2 for 24 hours. Then, the medium was replaced with Hepato-STIM (registered trade mark: BD Biosciences) (+EGF, PSG, −FBS), and the cells were further cultured at 37° C. in 5% CO2 for 24 hours. […] The culture medium containing test compound, β-NF or Rif was replaced every 24 hours. Test compound, β-NF and Rif were each dissolved in dimethyl sulfoxide (DMSO: Wako Pure Chemical Industries, Ltd.), and culture medium containing test compound (final concentrations; 1, 3 and 10 μM), β-NF (final concentration; 10 μM) or Rif (final concentration; 10 μM) was prepared by adding them to Hepato-STIM(+EGF, PSG, −FBS), respectively. […] The levels of mRNA for CYP1A1 and GAPDH were quantified using SYBR Green PCR Core Reagents Kit (Applied Biosystems), and those for CYP1A2 and that of CYP3A4 were measured using Taqman PCR Core Reagents Kit (Applied Biosystems) and ABI Prism 7900 Sequence Detection System (Applied Biosystems).
as §2, §3

CYP1A1 = details: human, hepatocytes
Experimental: Cryopreserved human hepatocytes (XenoTeck) were rapidly thawed at 37° C., and viable cells were obtained using Hepatocytes Isolation Kit (Nosan Corporation). After cells prepared were diluted with ice cold William's Medium E (10% FBS, +PSG) to give a concentration of 5×10^5 viable cells/mL, the cells were seeded onto a 48-well collagen-coated plate (BD Biosciences) at a concentration of 1×10^5 cells/cm^2 and cultured at 37° C. in 5% CO2 for 24 hours. Then, the medium was replaced with Hepato-STIM (registered trade mark: BD Biosciences) (+EGF, PSG, −FBS), and the cells were further cultured at 37° C. in 5% CO2 for 24 hours. […] The culture medium containing test compound, β-NF or Rif was replaced every 24 hours. Test compound, β-NF and Rif were each dissolved in dimethyl sulfoxide (DMSO: Wako Pure Chemical Industries, Ltd.), and culture medium containing test compound (final concentrations; 1, 3 and 10 μM), β-NF (final concentration; 10 μM) or Rif (final concentration; 10 μM) was prepared by adding them to Hepato-STIM(+EGF, PSG, −FBS), respectively. Final concentration of DMSO was set to be 0.1%, and culture medium containing 0.1% DMSO was used for control. […] The levels of mRNA for CYP1A1 and GAPDH were quantified using SYBR Green PCR Core Reagents Kit (Applied Biosystems), and those for CYP1A2 and that of CYP3A4 were measured using Taqman PCR Core Reagents Kit (Applied Biosystems) and ABI Prism 7900 Sequence Detection System (Applied Biosystems).
as §2

Induction Ability compared to positive control (%) CYP1A2 (CYP1A2 [1]): 100.0%
Compound: O=c1cc(-c2ccccc2)oc2ccc3ccccc3c12 [β-naphthof lavone, β-naphthoflavone]

Compound: CNc1nc(-c2cccc(NC(=O)c3ccc(C(=O)OC)cc3)c2)c2cc(OC)c(OC)cc2n1 [Example 10, methyl N-[3-(6,7-dimethoxy-2-methylaminoquinazolin-4-yl)phenyl]terephthalamic acid]
induction potency on CYPs compared with the comparative example (CYPs): lower induction potency on CYPs than the compound of the comparative example

Induction Ability compared to positive control (%) CYP1A2 (CYP1A2 [2]; 1 μM): −0.1%
Induction Ability compared to positive control (%) CYP1A2 (CYP1A2 [2]; 3 μM): −0.7%
Induction Ability compared to positive control (%) CYP1A2 (CYP1A2 [2]; 10 μM): 2.5%
Induction Ability compared to positive control (%) CYP3A4 (CYP3A4; 1 μM): −2.4%
Induction Ability compared to positive control (%) CYP3A4 (CYP3A4; 3 μM): −3.4%
Induction Ability compared to positive control (%) CYP3A4 (CYP3A4; 10 μM): −4.0%
Induction Ability compared to positive control (%) CYP1A1 (CYP1A1; 1 μM): 0.1%
Induction Ability compared to positive control (%) CYP1A1 (CYP1A1; 3 μM): 0.6%
Induction Ability compared to positive control (%) CYP1A1 (CYP1A1; 10 μM): 4.6%
Compound: COc1cc2nc(Cl)nc(-c3cccc(NC(=O)OC(C)(C)C)c3)c2cc1OC [Example 1, t-butyl [3-(2-chloro-6,7-dimethoxyquinazolin-4-yl)phenyl]carbamate]
